2 compounds from ChEMBL document CHEMBL1149795, “5,7-Dihydroxychromone-2-carboxylic acid and it's transition-metal (Mn and Zn) chelates as non-thiol radioprotective agents” (Eur J Med Chem, 2008) can be followed below.

A word on the LD50: it is the dose at which mortality reaches 50%. Read a low LD50 as greater toxicity.

The nature of data set [1]: Toxicity against sc dosed NMRI mouse. As to conditions: in vivo. The format is organism-based.
Data set [2] has as its system Mus musculus. In words: Radioprotective activity against gamma-irradiation in NMRI mouse assessed as survival at 1.0 mmol/kg, sc administered 24 hrs prior to irradiation measured after 30 days. Format: functional. As to conditions: light or radiation study.
Data set [3] concerns Mus musculus. The data set can be described thus: Radioprotective activity against gamma-irradiation in NMRI mouse assessed as survival at 0.5 mmol/kg, sc administered 24 hrs prior to irradiation measured after 30 days. The format is functional. As to conditions: light or radiation study.
Data set [4] relates to Mus musculus. In words: Radioprotective activity against gamma-irradiation in NMRI mouse assessed as survival at 0.5 mmol/kg, sc administered 1 hr prior to irradiation measured after 30 days. Format: functional. Conditions: light or radiation study.

For `O=C(O)c1cc(=O)c2c(O)cc(O)cc2o1`, the LD50 in data set [1] was over 1500 mg/kg. In addition, the survival at 1000 µmol/kg in the data set on Mus musculus [2] is 50%. In the data set with Mus musculus [3], the survival at 500 µmol/kg is 35%.
The compound `NCCCNCCSP(=O)(O)O` [AMIFOSTINE] had an LD50 in data set [1] of 609 mg/kg. Moreover, in the data set with Mus musculus [4], the survival at 500 µmol/kg amounted to 81%.
